The test system of one assay is ring stage parasites. As to the kind of experiment: Parasite growth potency assay, 72 hours, LDH readout. Type of assay: cell-based. The following applies: 72 h, parasite growth measured by LDH assay after 72 hours at 37° C.; 0.7% rings, 2% haematocrit; read-out: EC50. As to the method:
The parasite stock was maintained at 4% haematocrit in RPMI-Hepes media buffered with sodium bicarbonate and supplemented with 5% heat inactivated human serum and 0.5% albumax.
On the day of assay set up, a blood smear of the parasite culture was Giemsa stained and counted. The parasitemia was adjusted to 0.7% rings and the haematocrit was diluted to 2% in RPMI-Hepes media buffered with sodium bicarbonate and supplemented with 5% heat inactivated human serum and 0.5% albumax. 30 ul of diluted parasites are then added into 10 ul of media+compound in pre-prepared Greiner TC assay plates. Parasite assay plates were placed in gassed humidified boxes in single layer and allowed to incubate at 37° C. for 72 hours. After 72 hours growth, assay plates are sealed with parafilm and frozen flat, in single file at −80° C. overnight. On the following day, assay plates are allowed to thaw at room temperature for 4 hours to which an LDH assay is performed to measure parasite growth.
What is called EC50 is the concentration that produces a half-maximal response. In the case of `CCC[C@H](c1cccc(C(=O)NC2CC(C)(C)Oc3ccccc32)c1)N1C(=N)NC(CC)(CC)CC1=O` (stereo in doubt) [Example 62A, [1-[1-[3-[(2,2-dimethylchroman-4-yl)carbamoyl]phenyl]butyl]-4,4-diethyl-6-oxo-hexahydropyrimidin-2-ylidene]ammonium; 2,2,2-trifluoroacetate], the EC50 is 0.4 nM.
With `CCC[C@@H](c1cccc(C(=O)NC2CC(C)(C)Oc3ccccc32)c1)N1C(=N)NC(CC)(CC)CC1=O` (stereo in doubt) [Example 62B, [1-[1-[3-[(2,2-dimethylchroman-4-yl)carbamoyl]phenyl]butyl]-4,4-diethyl-6-oxo-hexahydropyrimidin-2-ylidene]ammonium; 2,2,2-trifluoroacetate], the EC50 amounted to 7.5 nM.
The same measure, in the same setting: the result for `CCC1(CC)CC(=O)N([C@@H](CCOC)c2cccc(C(=O)NC3CC(C)(C)Oc4ccccc43)c2)C(=N)N1` (stereo in doubt) [Example 72A, [1-[1-[3-[(2,2-dimethylchroman-4-yl)carbamoyl]phenyl]-3-methoxy-propyl]-4,4-diethyl-6-oxo-hexahydropyrimidin-2-ylidene]ammonium; 2,2,2-trifluoroacetate] reads 25.5 nM.
Same read-out and setting: the result for `CCC1(CC)CC(=O)N([C@H](CCOC)c2cccc(C(=O)NC3CC(C)(C)Oc4ccccc43)c2)C(=N)N1` (stereo in doubt) [Example 72B, [1-[1-[3-[(2,2-dimethylchroman-4-yl)carbamoyl]phenyl]-3-methoxy-propyl]-4,4-diethyl-6-oxo-hexahydropyrimidin-2-ylidene]ammonium; 2,2,2-trifluoroacetate] reads 0.3 nM.
In the case of `CC#CCC[C@H](c1cccc(C(=O)N[C@H]2CC(C)(C)Oc3ccccc32)c1)N1C(=N)NC(CC)(CC)CC1=O` (stereo in doubt) [Example 83B, [1-[1-[3-[(2,2-dimethylchroman-4-yl)carbamoyl]phenyl]hex-4-ynyl]-4,4-diethyl-6-oxo-hexahydropyrimidin-2-ylidene]ammonium; 2,2,2-trifluoroacetate], the EC50 amounted to 0.4 nM.
Consider `CCC1(CC)CC(=O)N(Cc2cccc(C(=O)N[C@@H]3c4ccccc4OCC3F)c2)C(=N)N1` (stereo in doubt) [Example 87, [4,4-diethyl-1-[[3-[(3-fluorochroman-4-yl)carbamoyl]phenyl]methyl]-6-oxo-hexahydropyrimidin-2-ylidene]ammonium; 2,2,2-trifluoroacetate], for which the EC50 came to 7.3 nM.
On the same count and under the same terms, the result for `CCC1(CC)CC(=O)N(Cc2cccc(C(=O)N[C@H]3CC(C)(C)Oc4ccc(F)cc43)c2)C(=N)N1` (stereo in doubt) [Example 88, [4,4-diethyl-1-[[3-[(6-fluoro-2,2-dimethyl-chroman-4-yl)carbamoyl]phenyl]methyl]-6-oxo-hexahydropyrimidin-2-ylidene]ammonium; 2,2,2-trifluoroacetate] reads 0.4 nM; that for `CCC1(CC)CC(=O)N(Cc2cc(C#N)cc(C(=O)N[C@@H]3CC(C)(C)Oc4ccccc43)c2)C(=N)N1` (stereo in doubt) [Example 89A, [1-[[3-cyano-5-[(2,2-dimethylchroman-4-yl)carbamoyl]phenyl]methyl]-4,4-diethyl-6-oxo-hexahydropyrimidin-2-ylidene]ammonium; 2,2,2-trifluoroacetate], 9.8 nM; that for `CCC1(CC)CC(=O)N(Cc2cc(C#N)cc(C(=O)N[C@H]3CC(C)(C)Oc4ccccc43)c2)C(=N)N1` (stereo in doubt) [Example 89B, [1-[[3-cyano-5-[(2,2-dimethylchroman-4-yl)carbamoyl]phenyl]methyl]-4,4-diethyl-6-oxo-hexahydropyrimidin-2-ylidene]ammonium; 2,2,2-trifluoroacetate], 1.6 nM.
Regarding `CCC1(CC)CC(=O)N([C@H](c2cccc(C(=O)N[C@H]3CC(C)(C)Oc4ccccc43)c2)c2cncs2)C(=N)N1` (stereo in doubt) [Example 90C, 3-[(4,4-diethyl-2-imino-6-oxo-hexahydropyrimidin-1-yl)-thiazol-5-yl-methyl]-N-(2,2-dimethylchroman-4-yl)benzamide], the EC50 was found to be 12 nM.
As to `CCC1(CC)CC(=O)N(Cc2cccc(C(=O)N[C@@H]3C[C@@H](C(F)(F)F)Oc4ccccc43)c2)C(=N)N1` (stereo in doubt) [Example 91B, [4,4-diethyl-6-oxo-1-[[3-[[2-(trifluoromethyl)chroman-4-yl]carbamoyl]phenyl]methyl]hexa-hydropyrimidin-2-ylidene]ammonium; 2,2,2-trifluoroacetate], the EC50 stood at 63.7 nM.
Regarding `CCC1(CC)CC(=O)N([C@H](c2cncnc2)c2cccc(C(=O)N[C@H]3CC(C)(C)Oc4ccccc43)c2)C(=N)N1` (stereo in doubt) [Example 92B, 3-[(4,4-diethyl-2-imino-6-oxo-hexahydropyrimidin-1-yl)-pyrimidin-5-yl-methyl]-N-(2,2-dimethylchroman-4-yl)benzamide], the EC50 was 0.9 nM.
On to `CCC1(CC)CC(=O)N(Cc2cccc(C(=O)N[C@H]3CC(C)(C)Oc4cc(F)ccc43)c2)C(=N)N1` (stereo in doubt) [Example 93, [4,4-diethyl-1-[[3-[(7-fluoro-2,2-dimethyl-chroman-4-yl)carbamoyl]phenyl]methyl]-6-oxo-hexahydropyrimidin-2-ylidene]ammonium; 2,2,2-trifluoroacetate], for which the EC50 came to 1.8 nM.

Staying with this assay, now noted: parasite growth measured by LDH assay after 72 hours at 37° C.; 0.7% rings, 2% haematocrit; read-out: EC50.
For `CC[C@]1(C)CC(=O)N([C@H](CCOC)c2cccc(C(=O)NC3c4ccccc4OC(C)(C)C3(C)O)c2)C(=N)N1` (single isomer, unassigned) [Example 234A], the EC50 turned out to be 0.43 nM.
On to `CC[C@]1(C)CC(=O)N([C@H](CCOC)c2cccc(C(=O)NC3c4ccccc4OC(C)(C)C3(C)O)c2)C(=N)N1` (single isomer, unassigned) [Example 234B], for which the EC50 turned out to be 74.8 nM.
Still for that read-out and setting: the result for `CCC1(CC)CC(=O)N(C(CC(O)C(F)(F)F)c2cccc(C(=O)N[C@@H]3c4ccccc4C[C@H]3O)c2)C(=N)N1` (single isomer, unassigned) [Example 236A] reads 55 nM; that for `CCC1(CC)CC(=O)N(C(CC(O)C(F)(F)F)c2cccc(C(=O)N[C@@H]3c4ccccc4C[C@H]3O)c2)C(=N)N1` (single isomer, unassigned) [Example 236B], 0.96 nM; that for `CCC1(CC)CC(=O)N(C(CC(O)C(F)(F)F)c2cccc(C(=O)N[C@@H]3c4ccccc4C[C@H]3O)c2)C(=N)N1` (single isomer, unassigned) [Example 236C], 2.3 nM.
On to `CC[C@]1(C)CC(=O)N([C@H](CCOC)c2cccc(C(=O)NC3c4cc(F)ccc4OC(C)(C)C3(C)O)c2)C(=N)N1` (single isomer, unassigned) [Example 237A], for which the EC50 was 54.6 nM.
For `CC[C@]1(C)CC(=O)N([C@H](CCOC)c2cccc(C(=O)NC3c4cc(F)ccc4OC(C)(C)C3(C)O)c2)C(=N)N1` (single isomer, unassigned) [Example 237B], the EC50 turned out to be 0.19 nM.
With `CCC1(CC)CC(=O)N(C(CC(OC)C(F)(F)F)c2cccc(C(=O)N[C@@H]3c4ccccc4C[C@H]3O)c2)C(=N)N1` (single isomer, unassigned) [Example 238A], the EC50 was 1.94 nM.
As to `CCC1(CC)CC(=O)N(C(CC(OC)C(F)(F)F)c2cccc(C(=O)N[C@@H]3c4ccccc4C[C@H]3O)c2)C(=N)N1` (single isomer, unassigned) [Example 238B], the EC50 worked out at 67.5 nM.
On the same count and under the same terms, the result for `CCC1(CC)CC(=O)N(C(CC(OC)C(F)(F)F)c2cccc(C(=O)N[C@@H]3c4ccccc4C[C@H]3O)c2)C(=N)N1` (single isomer, unassigned) [Example 238C] reads 2.32 nM; that for `CCC1(CC)CC(=O)N(C(CC(OC)C(F)(F)F)c2cccc(C(=O)N[C@@H]3c4ccccc4C[C@H]3O)c2)C(=N)N1` (single isomer, unassigned) [Example 238D], 2.25 nM; that for `CC[C@]1(C)CC(=O)N(C(CCOC(F)F)c2cccc(C(=O)NC3c4ccccc4OC(C)(C)C3(C)O)c2)C(=N)N1` (single isomer, unassigned) [Example 240A], 91.6 nM.
In the case of `CC[C@]1(C)CC(=O)N(C(CCOC(F)F)c2cccc(C(=O)NC3c4ccccc4OC(C)(C)C3(C)O)c2)C(=N)N1` (single isomer, unassigned) [Example 240B], the EC50 was determined as 0.25 nM.
On to `CCC1(CC)CC(=O)N([C@@H](c2cccc(C(=O)N[C@@H]3CC(C)(C)Oc4ccccc43)c2)c2cncs2)C(=N)N1` (stereo in doubt) [Example 90A, 3-[(4,4-diethyl-2-imino-6-oxo-hexahydropyrimidin-1-yl)-thiazol-5-yl-methyl]-N-(2,2-dimethylchroman-4-yl)benzamide], for which the EC50 is 3.2 nM.
Turning to `CCC1(CC)CC(=O)N([C@@H](c2cccc(C(=O)N[C@@H]3CC(C)(C)Oc4ccccc43)c2)c2cncs2)C(=N)N1` (stereo in doubt) [Example 90B, 3-[(4,4-diethyl-2-imino-6-oxo-hexahydropyrimidin-1-yl)-thiazol-5-yl-methyl]-N-(2,2-dimethylchroman-4-yl)benzamide], the EC50 was 0.5 nM.

Still in this assay, the particulars now being: parasite growth measured by LDH assay after 72 hours at 37° C.; 0.7% rings, 2% haematocrit; trifluoroacetate; read-out: EC50.
For `CCC1(CC)CC(=O)N(Cc2cccc(C(=O)N[C@H]3C[C@H](C(F)(F)F)Oc4ccccc43)c2)C(=N)N1` (stereo in doubt) [Example 91A, [4,4-diethyl-6-oxo-1-[[3-[[2-(trifluoromethyl)chroman-4-yl]carbamoyl]phenyl]methyl]hexa-hydropyrimidin-2-ylidene]ammonium; 2,2,2-trifluoroacetate], the EC50 was found to be 1.9 nM.

The values are drawn from patent US12629374B2, “Antimalarial agents” (Merck Sharp & Dohme LLC, priority 2020, dated 2026).
